In brackets after ≈: the same amount, converted by molar mass.
Tests used:
Type in all cases: cell-based
[1] = test system: methicillin-sensitive Staphylococcus epidermidis (MSSE); assay: MIC, two-fold agar dilution (CLSI), clinical isolates
Description: (§1) 1. The invention adopts the two-fold agar dilution method recommended by the operating procedure of antimicrobial susceptibility testing set by American Clinical and Laboratory Standards Institute (CLSI) to determine the Minimum Inhibitory Concentration (MIC) of the test samples against the tested strains.

[2] = test system: Enterococcus faecalis (EFA); assay: as above
Description: as §1

[3] = test system: Enterococcus faecium (EFM); assay: as above
Description: as §1

[4] = test system: Streptococcus pneoumoniae (SPN); assay: as above
Description: as §1

[5] = test system: methicillin-resistant Staphylococcus epidermidis (MRSE); assay: as above
Description: as §1

[6] = test system: methicillin-sensitive Staphylococcus aureus (MSSA); assay: as above
Description: as §1

[7] = test system: Moraxella catarrhalis (BCA); assay: as above
Description: as §1

[8] = test system: Escherichia coli (including ESBLs, non-ESBLs); assay: as above
Description: as §1

[9] = test system: methicillin-resistant Staphylococcus aureus (MRSA); assay: as above
Description: as §1

[10] = test system: HCT-116 colorectal cancer cell line; assay: CCK-8 proliferation inhibition; details: Homo sapiens, HCT-116, 72 h, concentration of 30 μM; 72 hours; CCK-8; read-out: HCT116 inhibition rate/%
Protocol: (1) HCT-116 colorectal cancer cell line, A549 lung cancer cell line, MGC-803 gastric cancer cell line, BEL-7402 liver cancer cell line, Jurkat T cell leukemia cell line, HL60 acute myeloid leukemia cell line, Hela cervical cancer cell line, MCF-7 breast cancer cell line, PC3 prostate cancer cell line and SAOS-2 osteosarcoma cell line were made into single cell suspension, 180 μL of which was inoculated into 96-well culture plate, which was cultured overnight in CO2 incubator (37° C., 5% CO2, 95% air).
(2) Each of the spiro three-membered ring, spiro five membered ring peptide deformylase inhibitors was dissolved in DMSO, and was further formulated into drug solution with required different final concentration using corresponding cell culture medium. The drug solutions were added to the above cells respectively (20 μL/well), with the control group added with 1‰ DMSO, and cultured in a CO2 incubator for 72 hours.
(3) After incubation for 72 hours, the culture solution was decanted, and 100 μL of 1:10 diluted CCK-8 solution was added.
Wherein, in step (1), the concentration of the single cell suspension was 2000 cells/well.
Wherein, in step (2), HCT-116 cells were cultured in McCoy's 5A medium (containing 10% newborn bovine serum, 1% double antibody); A549 and PC3 cells were cultured in F12 medium (containing 10% newborn bovine serum, 1% double antibody); MGC-803, BEL-7402, SAOS-2, Jurkat and HL60 cells were cultured in 1640 medium (containing 10% newborn bovine serum, 1% double antibody); and MCF-7 and Hela cells were cultured in DMEM high glucose medium (containing 10% newborn bovine serum, 1% double antibody).

CCCC[C@H](CN(O)C=O)C(=O)N1CC2(CC2)C[C@H]1C(=O)NC1CC1 [Example 18]
MIC (anti-bacterial activity) ([1]; strain MSSE 15-3): 2 mg/L (≈ 5.69 µM)
MIC (anti-bacterial activity) ([1]; strain MSSE 15-4): 2 mg/L (≈ 5.69 µM)
MIC (anti-bacterial activity) ([1]; strain MSSE 15-5): 2 mg/L (≈ 5.69 µM)
MIC (anti-bacterial activity) ([1]; strain MSSE 15-6): 2 mg/L (≈ 5.69 µM)
MIC (anti-bacterial activity) ([2]; strain EFA 15-1): 32 mg/L (≈ 91.1 µM)
MIC (anti-bacterial activity) ([2]; strain EFA 15-2): 32 mg/L (≈ 91.1 µM)
MIC (anti-bacterial activity) ([2]; strain EFA 15-3): 8 mg/L (≈ 22.8 µM)
MIC (anti-bacterial activity) ([2]; strain EFA 15-4): 32 mg/L (≈ 91.1 µM)
MIC (anti-bacterial activity) ([2]; strain EFA 15-5): 32 mg/L (≈ 91.1 µM)
MIC (anti-bacterial activity) ([2]; strain EFA 15-6): 32 mg/L (≈ 91.1 µM)
MIC (anti-bacterial activity) ([2]; strain EFA 15-9): 32 mg/L (≈ 91.1 µM)
MIC (anti-bacterial activity) ([3]; strain EFM 15-1): 8 mg/L (≈ 22.8 µM)
MIC (anti-bacterial activity) ([3]; strain EFM 15-2): 8 mg/L (≈ 22.8 µM)
MIC (anti-bacterial activity) ([3]; strain EFM 15-3): 2 mg/L (≈ 5.69 µM)
MIC (anti-bacterial activity) ([3]; strain EFM 15-4): 8 mg/L (≈ 22.8 µM)
MIC (anti-bacterial activity) ([3]; strain EFM 15-5): 4 mg/L (≈ 11.4 µM)
MIC (anti-bacterial activity) ([3]; strain EFM 15-6): 8 mg/L (≈ 22.8 µM)
MIC (anti-bacterial activity) ([4]; strain SPN 16-2): 16 mg/L (≈ 45.5 µM)
MIC (anti-bacterial activity) ([4]; strain SPN 16-4): 4 mg/L (≈ 11.4 µM)
MIC (anti-bacterial activity) ([5]; strain MRSE 15-1): 2 mg/L (≈ 5.69 µM)
MIC (anti-bacterial activity) ([5]; strain MRSE 15-2): 2 mg/L (≈ 5.69 µM)
MIC (anti-bacterial activity) ([5]; strain MRSE 15-3): 2 mg/L (≈ 5.69 µM)
MIC (anti-bacterial activity) ([5]; strain MRSE 15-7): 2 mg/L (≈ 5.69 µM)
MIC (anti-bacterial activity) ([6]; strain MSSA 15-3): 2 mg/L (≈ 5.69 µM)
MIC (anti-bacterial activity) ([6]; strain MSSA 15-4): 2 mg/L (≈ 5.69 µM)
MIC (anti-bacterial activity) ([6]; strain MSSA 15-5): 2 mg/L (≈ 5.69 µM)
MIC (anti-bacterial activity) ([6]; strain MSSA 15-6): 2 mg/L (≈ 5.69 µM)
MIC (anti-bacterial activity) ([7]; strain BCA 14-1): 16 mg/L (≈ 45.5 µM)
MIC (anti-bacterial activity) ([7]; strain BCA 14-4): 8 mg/L (≈ 22.8 µM)
MIC (anti-bacterial activity) ([7]; strain BCA 14-5): 4 mg/L (≈ 11.4 µM)
MIC (anti-bacterial activity) ([7]; strain BCA 14-6): 16 mg/L (≈ 45.5 µM)
MIC (anti-bacterial activity) ([7]; strain BCA 14-7): 4 mg/L (≈ 11.4 µM)
MIC (anti-bacterial activity) ([7]; strain BCA 14-8): 4 mg/L (≈ 11.4 µM)
MIC (anti-bacterial activity) ([7]; strain BCA 14-10): 4 mg/L (≈ 11.4 µM)
MIC (anti-bacterial activity) ([8]; strain ECO+ 15-1): 32 mg/L (≈ 91.1 µM)
MIC (anti-bacterial activity) ([8]; strain ECO+ 15-2): 32 mg/L (≈ 91.1 µM)
MIC (anti-bacterial activity) ([8]; strain ECO+ 15-3): 32 mg/L (≈ 91.1 µM)
MIC (anti-bacterial activity) ([8]; strain ECO+ 15-4): 32 mg/L (≈ 91.1 µM)
MIC (anti-bacterial activity) ([8]; strain ECO− 15-1): > 32 mg/L
MIC (anti-bacterial activity) ([8]; strain ECO− 15-2): > 32 mg/L
MIC (anti-bacterial activity) ([8]; strain ECO− 15-3): 32 mg/L (≈ 91.1 µM)
MIC (anti-bacterial activity) ([8]; strain ECO− 15-4): 32 mg/L (≈ 91.1 µM)
MIC (anti-bacterial activity) ([9]; strain MRSA 15-1): 2 mg/L (≈ 5.69 µM)
MIC (anti-bacterial activity) ([9]; strain MRSA 15-2): 2 mg/L (≈ 5.69 µM)
MIC (anti-bacterial activity) ([9]; strain MRSA 15-3): 2 mg/L (≈ 5.69 µM)
MIC (anti-bacterial activity) ([9]; strain MRSA 15-4): 2 mg/L (≈ 5.69 µM)
inhibition at 30 µM [10]: 5%

CCCC[C@H](CN(O)C=O)C(=O)N1CC2(CC2)C[C@H]1C(=O)Nc1nc(C)cs1 [Example 19]
MIC (anti-bacterial activity) ([1]; strain MSSE 15-3): 0.125 mg/L (≈ 0.306 µM)
MIC (anti-bacterial activity) ([1]; strain MSSE 15-4): 0.125 mg/L (≈ 0.306 µM)
MIC (anti-bacterial activity) ([1]; strain MSSE 15-5): 0.03 mg/L (≈ 0.0734 µM)
MIC (anti-bacterial activity) ([1]; strain MSSE 15-6): 0.015 mg/L (≈ 0.0367 µM)
MIC (anti-bacterial activity) ([2]; strain EFA 15-1): 8 mg/L (≈ 19.6 µM)
MIC (anti-bacterial activity) ([2]; strain EFA 15-2): 8 mg/L (≈ 19.6 µM)
MIC (anti-bacterial activity) ([2]; strain EFA 15-3): 8 mg/L (≈ 19.6 µM)
MIC (anti-bacterial activity) ([2]; strain EFA 15-4): 8 mg/L (≈ 19.6 µM)
MIC (anti-bacterial activity) ([2]; strain EFA 15-5): 8 mg/L (≈ 19.6 µM)
MIC (anti-bacterial activity) ([2]; strain EFA 15-6): 8 mg/L (≈ 19.6 µM)
MIC (anti-bacterial activity) ([2]; strain EFA 15-9): 8 mg/L (≈ 19.6 µM)
MIC (anti-bacterial activity) ([3]; strain EFM 15-1): 8 mg/L (≈ 19.6 µM)
MIC (anti-bacterial activity) ([3]; strain EFM 15-2): 4 mg/L (≈ 9.79 µM)
MIC (anti-bacterial activity) ([3]; strain EFM 15-3): 0.25 mg/L (≈ 0.612 µM)
MIC (anti-bacterial activity) ([3]; strain EFM 15-4): 2 mg/L (≈ 4.9 µM)
MIC (anti-bacterial activity) ([3]; strain EFM 15-5): 0.25 mg/L (≈ 0.612 µM)
MIC (anti-bacterial activity) ([3]; strain EFM 15-6): 2 mg/L (≈ 4.9 µM)
MIC (anti-bacterial activity) ([4]; strain SPN 16-2): 4 mg/L (≈ 9.79 µM)
MIC (anti-bacterial activity) ([4]; strain SPN 16-4): 0.25 mg/L (≈ 0.612 µM)
MIC (anti-bacterial activity) ([5]; strain MRSE 15-1): 0.06 mg/L (≈ 0.147 µM)
MIC (anti-bacterial activity) ([5]; strain MRSE 15-2): 0.125 mg/L (≈ 0.306 µM)
MIC (anti-bacterial activity) ([5]; strain MRSE 15-3): 0.125 mg/L (≈ 0.306 µM)
MIC (anti-bacterial activity) ([5]; strain MRSE 15-7): 0.125 mg/L (≈ 0.306 µM)
MIC (anti-bacterial activity) ([6]; strain MSSA 15-3): 0.125 mg/L (≈ 0.306 µM)
MIC (anti-bacterial activity) ([6]; strain MSSA 15-4): 0.125 mg/L (≈ 0.306 µM)
MIC (anti-bacterial activity) ([6]; strain MSSA 15-5): 0.03 mg/L (≈ 0.0734 µM)
MIC (anti-bacterial activity) ([6]; strain MSSA 15-6): 0.25 mg/L (≈ 0.612 µM)
MIC (anti-bacterial activity) ([7]; strain BCA 14-1): 1 mg/L (≈ 2.45 µM)
MIC (anti-bacterial activity) ([7]; strain BCA 14-4): 1 mg/L (≈ 2.45 µM)
MIC (anti-bacterial activity) ([7]; strain BCA 14-5): 0.125 mg/L (≈ 0.306 µM)
MIC (anti-bacterial activity) ([7]; strain BCA 14-6): 0.5 mg/L (≈ 1.22 µM)
MIC (anti-bacterial activity) ([7]; strain BCA 14-7): 0.25 mg/L (≈ 0.612 µM)
MIC (anti-bacterial activity) ([7]; strain BCA 14-8): 0.25 mg/L (≈ 0.612 µM)
MIC (anti-bacterial activity) ([7]; strain BCA 14-10): 0.125 mg/L (≈ 0.306 µM)
MIC (anti-bacterial activity) ([8]; strain ECO+ 15-1): 32 mg/L (≈ 78.3 µM)
MIC (anti-bacterial activity) ([8]; strain ECO+ 15-2): > 32 mg/L
MIC (anti-bacterial activity) ([8]; strain ECO+ 15-3): > 32 mg/L
MIC (anti-bacterial activity) ([8]; strain ECO+ 15-4): > 32 mg/L
MIC (anti-bacterial activity) ([8]; strain ECO− 15-1): > 32 mg/L
MIC (anti-bacterial activity) ([8]; strain ECO− 15-2): > 32 mg/L
MIC (anti-bacterial activity) ([8]; strain ECO− 15-3): > 32 mg/L
MIC (anti-bacterial activity) ([8]; strain ECO− 15-4): > 32 mg/L
MIC (anti-bacterial activity) ([9]; strain MRSA 15-1): 0.125 mg/L (≈ 0.306 µM)
MIC (anti-bacterial activity) ([9]; strain MRSA 15-2): 0.125 mg/L (≈ 0.306 µM)
MIC (anti-bacterial activity) ([9]; strain MRSA 15-3): 0.03 mg/L (≈ 0.0734 µM)
MIC (anti-bacterial activity) ([9]; strain MRSA 15-4): 0.25 mg/L (≈ 0.612 µM)
inhibition at 30 µM [10]: 6%
